“Also recorded” adds a separate entry of the source. Like-named read-outs stand apart in the source and are kept apart here.
Tests used:
[1] = target: T1, human prostatic steroid 5-α-reductase (Homo sapiens, UniProt P31213); test: Inhibition of human prostatic steroid 5-α-reductase (conversion of [14C]-testosterone, prostatic particulates); format: biochemical; details: for Ki: pH 5.0, 37° C., competitive versus testosterone assumed, Dixon analysis, read-out: Inhibition Constants of Human Prostatic Steroid 5-α-Reductase, Ki
T1 construct: Prostatic particles were obtained by differential centrifugation; from tissue; host or cells: hyperplastic human prostate, particulate fraction (140,000 x g pellet)
T1 sequence (P31213 1-254): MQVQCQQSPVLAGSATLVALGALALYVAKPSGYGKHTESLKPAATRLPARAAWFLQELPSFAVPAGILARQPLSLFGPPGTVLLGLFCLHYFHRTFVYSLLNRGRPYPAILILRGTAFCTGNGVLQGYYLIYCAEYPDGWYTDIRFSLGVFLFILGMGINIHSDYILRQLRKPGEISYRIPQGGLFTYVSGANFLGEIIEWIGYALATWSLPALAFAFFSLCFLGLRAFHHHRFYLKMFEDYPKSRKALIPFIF
Procedure: Such diseases and conditions include acne vulgaris, seborrhea, female hirsutism, prostate diseases such as benign prostatic hypertrophy and prostatic adenocarcinoma and male pattern baldness. The potency of several compounds of the invention was tested for potency in inhibiting human steroid 5-α-reductase using tissue from hyperplastic human prostates. In determining potency in inhibiting the human enzyme, the following procedure was employed:
Frozen human prostates were thawed and minced into small pieces (5 mm^3). The tissue was homogenized in 3 to 5 volumes of 20 mM potassium phosphate, pH 6.5, buffer containing 0.33 M sucrose, 1 mM dithiothreitol, and 50 μM NADPH with a Brinkmann Polytron (Sybron Corporation, Westbury, N.Y.). The solution was subjected to sonication for 3 to 5 minutes with a Sonifier Branson Sonic Power Co.) followed by hand homogenization in a glass-to-glass Dounce homogenizer (Kontes Glass Company, Vineland, N.J.).
Prostatic particles were obtained by differential centrifugation at 600 or 1,000 x g for 20 minutes and 140,000 x g for 60 minutes at 4° C. The pellet obtained from the 140,000 x g centrifugation was washed with 5 to 10 tissue volumes of the buffer described above and recentrifuged at 140,000 x g. The resulting pellet was suspended in 20 mM potassium phosphate buffer, pH 6.5, containing 20% glycerol, 1 mM dithiothreitol, and 50 μM NADPH. The suspended particulate solution was stored at -80° C.
A constant amount of [^14 C]-testosterone (52 to 55 mCi/mmol, New England Nuclear, Boston, MA) in ethanol and varying amounts of the potential inhibitor in ethanol were deposited in test tubes and concentrated to dryness in a SAVANT Speed Vac. To each tube was added buffer, 20 μl of 10 mM NADPH and an aliquot of prostatic particulate solution to a final volume of 1.0 ml of 50 mM sodium citrate, pH 5.0. After incubating the solution at 37° C. for 20 to 30 minutes the reaction was quenched by the addition of 4 ml ethyl acetate and 0.25 μmol each of testosterone, dihydrotestosterone, androstanediol, and androstanedione as carriers. The organic layer was removed to a second test tube and evaporated to dryness in a Speed Vac. The residue was dissolved in 20 to 30 μl chloroform, spotted on an individual lane of a 20 x 20 cm prechannelled silica gel TLC plate (Si 250F PA, Baker Chemical) and developed twice with acetone:chloroform (1:9). The radiochemical content in the bands of the substrate and the products was determined with a BIOSCAN Imaging Scanner (Bioscan, Inc., Washington, D.C.). The percent of recovered radiolabel converted to product was calculated, from which enzyme activity was determined. All incubations were conducted such that no more than 12% of the substrate (testosterone) was consumed.
The experimentally obtained data was computer fitted to a linear function by plotting the reciprocal of the enzyme activity (1/velocity) against the variable inhibitor concentration (Dixon, M. (1953), Biochem. J., 55, 170). Assuming that the steroidal inhibitor is a competitive inhibitor against testosterone, a value for the inhibition constant (Ki) can be calculated from equation 1:
Ki =(B/A)/[…]) Equation 1

steroid 5-α-reductase [2] = details: cited from earlier work; for mode of 5-α-reductase inhibition: in words
steroid 5-α-reductase [3] = test: In vivo inhibition of steroid 5-α-reductase: prostatic DHT (and testosterone) levels in rats; parameters: species or system rat
Procedure: Certain compounds of the invention also were tested for their in vivo potency in inhibiting steroid 5-α-reductase activity. Male Charles River CD rats, 48 days old, weighing approximately 200 gm were administered 10 mg/kg of N,N-diisopropyl androst-3,5-diene-17β-carboxamide-3-carboxylic acid dissolved in propylene glycol and diluted in normal saline. Following compound administration the animals were sacrificed, the ventral prostates were excised, and DHT levels were measured by the following procedure.
Prostate tissue was excised, trimmed, weighed, minced and washed with phosphate buffer. The tissue then was homogenized in phosphate buffer and extracted by addition of ethyl acetate and mixing on an orbital mixer for forty-five minutes. The ethyl acetate was evaporated, the residue was reconstituted in ethanol, and was centrifuge filtered using […] filter paper. The components then were separated using reverse-phase HPLC collecting the DHT fraction. The fraction was reduced to dryness and reconstituted in standard DHT assay buffer available from Amersham. DHT levels then were measured using standard techniques such as radioimmunoassay.
Using procedures similar to those described above the in vivo effects of 17β-N-t-butylcarbox-amide-androst-3,5-diene-3-carboxylic acid also were studied. Rats received a single oral dose of vehicle or 5, 10, 20 or 50 mg/kg of this compound.

ventral prostate = test: Effect of repeated dosing on prostatic growth / ventral prostate weight in rats; format: in vivo, rat; details: for ventral prostate weight, percent of control: rats, two weeks
Procedure: N,N diisopropyl-androst-3,5 diene 17β-carboxamide-3-carboxylic acid also was tested for its effects on prostatic growth.

steroid-5-α-reductase = test: In vitro steroid 5-α-reductase inhibition; format: biochemical; details: in words
seminal vesicle = test: Effect of repeated dosing on seminal vesicle weight in rats; format: in vivo, rat; details: rats, 1, 5, 10, 25 or 50 mg/kg twice daily, two weeks
[4] = Irreversible, read-out: 5-α-reductase inhibition constant (Table 1)

With `CC(C)(C)NC(=O)[C@H]1CC[C@H]2[C@@H]3CC[C@H]4C=C(C(=O)O)CC[C@]4(C)[C@H]3CC[C@]12C` the Ki [1] was 110 nM.
Work on `CC(C)(C)NC(=O)[C@H]1CC[C@H]2[C@@H]3CC=C4C=C(C(=O)O)CC[C@]4(C)[C@H]3CC[C@]12C` [drawing 35] yielded a Ki [1] of 30 nM.
`CC(C)N(C(=O)[C@H]1CC[C@H]2[C@@H]3CC(C(F)(F)F)=C4C=C(C(=O)O)CC[C@]4(C)[C@H]3CC[C@]12C)C(C)C` gave a Ki [1] of 900 nM.
In the case of `C[C@]12CC[C@H]3[C@@H](CCC4=CC(=O)CC[C@@]43C)[C@@H]1CC[C@@H]2C(=O)O` [(1)], the Ki (steroid 5-α-reductase [2]; Hsia and Voight 1973, read-out: K1) is listed as 1100 nM.
In the case of `C[C@H](CO)[C@H]1CC[C@H]2[C@@H]3CC[C@H]4C(F)=C(C(=O)O)CC[C@]4(C)[C@H]3CC[C@]12C`, the Ki [1] is reported as 2000 nM.
For `CC(CO)[C@H]1CC[C@H]2[C@@H]3CC[C@H]4C(=[N+]=[N-])C(=O)CC[C@]4(C)[C@H]3CC[C@]12C` (some centres unmarked) [(3)], the Ki (steroid 5-α-reductase [2]; Irreversible, Blohm, et al., 1980, read-out: 5-α-reductase inhibition constant (Table 1)) is listed as 35 nM and the “mode of 5-α-reductase inhibition” value (steroid 5-α-reductase [2]) is listed as “Irreversible; also recorded: potent, time-dependent inhibitor”.
For `CC(C)N(C(=O)[C@H]1CC[C@H]2[C@@H]3CC=C4C=C(C(=O)O)CC[C@]4(C)[C@H]3CC[C@]12C)C(C)C` [N,N-Diisopropyl-androst-3,5-diene-17β-carboxamide-3-carboxylic acid], the “duration of decreased DHT levels” value (steroid 5-α-reductase [3]; male CD rats, 10 mg/kg) was “greater than eight”, the “decrease of prostatic DHT levels relative to vehicle-treated controls” value (steroid 5-α-reductase [3]; male CD rats, 10 mg/kg, four hours after administration) was “forty” and the “return of prostatic DHT levels to control” value (steroid 5-α-reductase [3]; male CD rats, 10 mg/kg, twenty four hours after treatment) was “had returned to control levels”. For the same compound, the prostatic growth (ventral prostate; immature rats, 0.5 to 50 mg/kg twice daily oral, fourteen days) was “dose dependent decrease in prostatic growth” and the “decrease of prostate weight versus controls” value (ventral prostate; immature rats, maximum dose group (50 mg/kg), twice daily oral, fourteen days) was “forty to fifty”.
In the case of `COC(=O)C1=CC2=CC[C@H]3[C@@H]4CC[C@H](C(=O)N(C(C)C)C(C)C)[C@@]4(C)CC[C@@H]3[C@@]2(C)CC1` [methyl ester of the above compound, 3-Carbomethoxy-androst-3,5-diene-17β-N,N -diisopropylcarboxamide], the “decrease of prostatic DHT levels relative to vehicle-treated controls” value (steroid 5-α-reductase [3]; rats, single 10 mg/kg dose, after six hours) is reported as “forty eight”, the “steroid 5-α-reductase inhibition in vivo” value (steroid 5-α-reductase [3]; rats, single 10 mg/kg dose, in words) is reported as “significant enzyme inhibition” and the “steroid-5-α-reductase inhibition in vitro” value (steroid-5-α-reductase) is reported as “does not inhibit steroid-5-α-reductase in vitro”.
In the case of `CC(=O)[C@H]1CC[C@H]2[C@@H]3CC=C=CC(=O)CCC(=O)[C@H]3CC[C@]12C` [(2)], the Ki (steroid 5-α-reductase [2]; [4]) is given as 1000 nM and the “mode of 5-α-reductase inhibition” value (steroid 5-α-reductase [2]) is given as “Irreversible; also recorded: affinity label for 5 -α-reductase”.
Compound `CCOC(=O)C1=CC2=CC[C@H]3[C@@H]4CC[C@H](C(=O)N(C(C)C)C(C)C)[C@@]4(C)CC[C@@H]3[C@@]2(C)CC1` has a Ki [1] of 4000 nM.
`CC(C)N(C(=O)[C@H]1CC[C@H]2[C@@H]3CC[C@H]4C(F)=C(C(=O)O)CC[C@]4(C)[C@H]3CC[C@]12C)C(C)C` gave a Ki [1] of 26 nM.
For `CC(C)N(C(=O)[C@H]1CC[C@H]2[C@@H]3CC=C4C=C(C(=O)O)C=C[C@]4(C)[C@H]3CC[C@]12C)C(C)C`, the Ki [1] was 50 nM.
Work on `C[C@]12CC[C@H]3[C@@H](CCC4=CC(=O)CC[C@@]43C)[C@@H]1CC[C@@H]2O` [testosterone, reference compound] yielded a Km ([1]; determined in a separate experiment, read-out: Km of the substrate (testosterone)) of 4.5 µM.
In the case of `CCN(CC)C(=O)[C@H]1CC[C@H]2[C@@H]3CC[C@H]4N(C)C(=O)CC[C@]4(C)[C@H]3CC[C@]12C` [(4)], the Ki (steroid 5-α-reductase [2]; Liang, et al., 1983, read-out: 5-α-reductase inhibition constant (Table 1)) is given as 5 nM.
In the case of `C=C1C[C@@H]2[C@H](CC[C@@]3(C)[C@H]2CC[C@]3(OC(C)=O)C(C)=O)[C@@]2(C)CCC(=O)C=C12` [(5)], the Ki (steroid 5-α-reductase [2]; [4]) is given as 1250 nM and the “mode of 5-α-reductase inhibition” value (steroid 5-α-reductase [2]) is given as “Irreversible; also recorded: time-dependent inactivator”.
In the case of `CC(C)(C)NC(=O)[C@H]1CC[C@H]2[C@@H]3CC=C4C=C(C(=O)O)CC[C@]4(C)[C@H]3CC[C@]12C` [N-t-Butyl Androst-3,5-diene-17β-carboxamide-3-Carboxylic Acid], the “prostate dihydrotestosterone levels, percent of controls” value (steroid 5-α-reductase [3]; rats, 10 mg/kg, all time points from two to eighteen hours) is reported as “approximately sixty”, the prostate testosterone levels (steroid 5-α-reductase [3]; rats, 10 mg/kg, over twenty four hours) is reported as “viable without consistent trends” and the “return of dihydrotestosterone levels to control values” (steroid 5-α-reductase [3]; rats, 10 mg/kg, twenty-four hours post treatment) is reported as “returned to control values”. The prostate testosterone levels (steroid 5-α-reductase [3]; rats, single oral dose 5, 10, 20 or 50 mg/kg) was “remained unaffected”, the “prostate dihydrotestosterone levels, percent of controls” value (steroid 5-α-reductase [3]; rats, single oral dose 5, 10, 20 or 50 mg/kg (all doses)) was “approximately fifty” and the “ventral prostate weight, percent of control” value (ventral prostate; 5 mg/kg twice daily) was “ninety”. For the same compound, the “ventral prostate weight, percent of control” value (ventral prostate; 10 and 50 mg/kg twice daily) was “sixty five” and the seminal vesicle weights (seminal vesicle) was “significantly reduced at all treatment levels”.
